# Reference: patent US20070276011A1, “Plasminogen Activator Inhibitor-1 Inhibitor” (priority 2003, published 2007)
# Molecular target: recombinant human PAI-1 (Homo sapiens, UniProt P05121)
# Assay: PAI-1 inhibitory activity, Test Method A (tPA fluorogenic substrate, Tris buffer pH8.0, 37 C)
# Assay type: biochemical
# Conditions: for Inhibitory Ratio at 25 μM (%): Test Method A
# Method: To this solution, 50 μL solution of 400 μM fluogenic substrate for tPA (Pyr-Gly-Arg-MCA, Peptide Institute, Inc.) adjusted with the same buffer was added, and reacted for 30 minutes at 37° C. The reaction was stopped by adding 50 μL of 2% acetic acid. Fluorescence was measured at the excitation wavelength=360 nm, emission wavelength=460 or 465 nm using a microplate reader (SPECTRAFLUOR or GENios) by TECAN. The fluorescence intensities in the presence of the PAI-1 as the control (DMSO) or in the absence of the PAI-1 (tPA alone) were taken as 100% and 0% of PAI-1 activities, respectively, and inhibitory ratios of PAI-1 activities in the presence of the test compound were obtained.
# <Composition of the Tris Buffer (pH8.0)>
# Chain of recombinant human PAI-1 (P05121 24-402): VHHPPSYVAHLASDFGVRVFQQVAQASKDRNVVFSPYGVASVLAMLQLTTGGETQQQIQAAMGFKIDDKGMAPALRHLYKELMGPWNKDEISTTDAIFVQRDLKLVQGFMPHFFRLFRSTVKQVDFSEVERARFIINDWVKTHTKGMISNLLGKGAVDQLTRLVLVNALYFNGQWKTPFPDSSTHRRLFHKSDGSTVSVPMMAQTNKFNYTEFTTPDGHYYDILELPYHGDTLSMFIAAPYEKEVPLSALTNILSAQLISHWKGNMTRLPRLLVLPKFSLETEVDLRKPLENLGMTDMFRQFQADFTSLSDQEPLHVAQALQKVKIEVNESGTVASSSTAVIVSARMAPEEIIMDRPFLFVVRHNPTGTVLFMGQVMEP
SMILES,Inhibitory Ratio at 25 μM (%) (test compound 25 μM),Inhibitory Ratio at 25 μM (%) (25 μM test compound),other results
CC1=NN(c2ccc(Cl)c(C(=O)O)c2)C(=O)C1=Cc1ccc(-c2cccc(Cl)c2C)o1 [compound 190],81,,
"O=C1SC(=Cc2cccc(O)c2O)C(=O)N1Cc1cccc(Oc2ccccc2)c1 [compound 16, 5-(2,3-Dihydroxybenzylidene)-3-(3-phenoxybenzyl)thiazolidine-2,4-dione]",>99,,
"COc1ccc(Oc2ccc([N+](=O)[O-])c(C=C3C(=O)N(c4ccc(Cl)c(Cl)c4)N=C3C(C)C)c2)cc1OC [Compound No. 563, 4-[2-Nitro-5-(3,4-dimethoxyphenoxy)benzylidene]-1-(3,4-dichlorophenyl)-3-isopropyl-2-pyrazolin-5-one]",,62,
COCC1=NN(c2cc(Cl)cc(Cl)c2)C(=O)C1=Cc1ccccc1O [compound 523],,>99,
O=C1C(=Cc2ccc(Cl)c(Cl)c2)C(c2ccccc2)=NN1c1cccc([N+](=O)[O-])c1 [compound 201],>99,,
CCOC1=NN(c2ccc([N+](=O)[O-])cc2)C(=O)C1=Cc1ccc(O)c(O)c1 [compound 116],>99,,
CC1=NN(c2ccc(Cl)c(C(=O)O)c2)C(=O)C1=Cc1ccc(-c2ccccc2Cl)o1 [compound 188],35,,
"O=C1SC(=Cc2cccc(O)c2O)C(=O)N1Cc1ccc(-c2ccccc2)cc1 [compound 20, 5-(2,3-Dihydroxybenzylidene)-3-(4-phenylbenzyl)thiazolidine-2,4-dione]",>99,,
CC(C)C1=NN(c2cc(Cl)cc(Cl)c2)C(=O)C1=Cc1cc(Br)cc(Br)c1O [compound 105],>99,,
"CCOC1=NN(c2ccc([N+](=O)[O-])cc2)C(=O)C1=Cc1cc(C=Cc2ccccc2)ccc1O [compound 541, 4-(2-hydroxy-5-styrylbenzylidene)-1-(4-nitrophenyl)-3-ethoxy-2-pyrazolin-5-one]",,>99,
O=C1C(=Cc2ccc(-c3cc(Cl)cc(Cl)c3)o2)C(C(F)(F)F)=NN1c1cccc([N+](=O)[O-])c1 [compound 182],90,,
COc1cc(Br)cc(C=C2C(=O)N(c3cc(Cl)cc(Cl)c3)N=C2C(C)C)c1O [compound 528],,>99,
"CC(C)C1=NN(c2cccc([N+](=O)[O-])c2)C(=O)C1=Cc1ccc(Br)o1 [compound 200, 4-[(5-Bromofuran-2-yl)methylene]-1-(3-nitrophenyl)-3-isopropyl-2-pyrazolin-5-one]",53,,
CCOC(=O)C1=NN(c2cccc(C(=O)OCC)c2)C(=O)C1=Cc1ccc(-c2cc(Cl)cc(Cl)c2)o1 [compound 185],89,,
CC1=NN(c2cccc(Cl)c2)C(=O)C1=Cc1ccc(O)c(O)c1 [compound 117],46,,
CC1=NN(c2cccc(C(=O)O)c2)C(=O)C1=Cc1ccccc1 [compound 172],32,,
Cc1ccc(N2N=C(C(C)C)C(=Cc3cccc(O)c3)C2=O)cc1Cl [compound 121],80,,
O=C1C(=Cc2cc(Br)ccc2O)C(c2ccc(O)cc2)=NN1c1cc(Cl)cc(Cl)c1 [compound 510],,86,
"COc1ccc(N2C(=O)C(=Cc3ccc(O)c(O)c3)SC2=S)cc1OC [compound 76, 5-(3,4-Dihydroxybenzylidene)-3-(3,4-dimethoxyphenyl)rhodanine]",56,,

# Further lines, with some results ahead:
Inhibitory Ratio at 25 μM (%) (test compound 25 μM),Inhibitory Ratio at 25 μM (%) (25 μM test compound),SMILES,other results
,85,COC(=O)c1ccc(C(=O)n2cc(C=C3SC(=O)N(Cc4ccc(Cl)c(Cl)c4)C3=O)c3ccccc32)cc1 [compound 427],
,>99,O=C(Nc1cc(C=C2SC(=O)N(Cc3ccc(Cl)c(Cl)c3)C2=O)ccc1O)c1ccc(OC(F)(F)F)cc1 [compound 365],
,91,"O=C(OCc1ccccc1)c1cc(C=C2SC(=O)N(Cc3ccc(Cl)c(Cl)c3)C2=O)cc(-c2ccccc2)c1O [compound 426, 5-[3-Phenyl-4-hydroxy-5-(benzyloxycarbonyl)benzylidene]-3-(3,4-dichlorobenzyl)thiazolidine-2,4-dione]",
,>99,O=C(O)c1c(O)cc(C=C2SC(=O)N(Cc3ccc(Cl)c(Cl)c3)C2=O)cc1O [compound 446],
,>99,O=C(Nc1cccc(O)c1)c1cc(C=C2SC(=O)N(Cc3ccc(Cl)c(Cl)c3)C2=O)ccc1O [compound 356],
,>99,"COC(=O)c1ccc(CN2C(=O)SC(=Cc3ccc(O)c(C(=O)Nc4ccc(Cl)c(Cl)c4)c3)C2=O)cc1 [compound 415, 5-[4-hydroxy-3-(3,4-dichlorophenylcarbamoyl)benzylidene]-3-(4-methoxycarbonylbenzyl)thiazolidine-2,4-dione]",
,>99,"O=C1C(=Cc2ccc(O)c(O)c2)SC(=S)N1Cc1ccc(C(F)(F)F)cc1 [compound 307, 5-(3,4-Dihydroxybenzylidene)-3-[4-(trifluoromethyl)benzyl]rhodanine]","IC50 (50% inhibitory concentration of PAI-1 activity, according to the aforementioned method): 580 nM"
,>99,"COc1ccc(C=C2SC(=O)N(Cc3ccc(Cl)c(Cl)c3)C2=O)cc1NC(=O)c1ccc(O)c(O)c1 [compound 359, 5-[4-Methoxy-3-(3,4-dihydroxybenzoylamino)benzylidene]-3-(3,4-dichlorobenzyl)thiazolidine-2,4-dione]",
,>99,"COc1ccc(NC(=O)c2cc(C=C3SC(=O)N(Cc4cccc(Oc5ccccc5)c4)C3=O)ccc2O)cc1OC [compound 399, 5-[4-Hydroxy-3-(3,4-dimethoxyphenylcarbamoyl)benzylidene]-3-(3-phenoxybenzyl)thiazolidine-2,4-dione]",
,73,"O=C(Cc1ccccc1)Nc1ccc(CN2C(=O)SC(=Cc3cccc(O)c3O)C2=O)cc1 [compound 313, 5-(2,3-Dihydroxybenzylidene)-3-[4-(phenylacetylamino)benzyl]-thiazolidine-2,4-dione]",
>99,,CC(C)C1=NN(c2ccc(Cl)c(Cl)c2)C(=O)C1=Cc1ccc(O)c(O)c1 [compound 140],
>99,,O=C1SC(=Cc2ccc(O)c(O)c2)C(=O)N1Cc1cccc(Br)c1 [compound 35],
,>99,"COc1ccc(NC(=O)c2cc(C=C3SC(=O)N(Cc4ccc(Cl)cc4Cl)C3=O)ccc2O)cc1OC [compound 397, 5-[4-Hydroxy-3-(3,4-dimethoxyphenylcarbamoyl)benzylidene]-3-(2,4-dichlorobenzyl)thiazolidine-2,4-dione]",
,>99,"COc1cc(NC(=O)c2cc(C=C3SC(=O)N(Cc4ccc(Cl)c(Cl)c4)C3=O)ccc2O)cc(OC)c1OC [compound 433, 5-[4-hydroxy-3-(3,4,5-trimethoxyphenylcarbamoyl)benzylidene]-3-(3,4-dichlorobenzyl)thiazolidine-2,4-dione]",
,65,O=C1SC(=Cc2cc(O)c3c(c2)OCO3)C(=O)N1Cc1ccc(Cl)c(Cl)c1 [compound 324],
,69,O=C(Nc1cc(F)ccc1F)c1cc(C=C2SC(=O)N(Cc3ccc(Cl)c(Cl)c3)C2=O)ccc1O [compound 465],
,>99,"O=C1SC(=Cc2ccc(O)c(O)c2)C(=O)N1Cc1ccc(Nc2ccccc2)cc1 [compound 302, 5-(3,4-Dihydroxybenzylidene)-3-[4-(phenylamino)benzyl]thiazolidine-2,4-dione]",
